This assay addresses T1, Caspase-1 (Homo sapiens, UniProt P29466).
T1 sequence (P29466 whole entry): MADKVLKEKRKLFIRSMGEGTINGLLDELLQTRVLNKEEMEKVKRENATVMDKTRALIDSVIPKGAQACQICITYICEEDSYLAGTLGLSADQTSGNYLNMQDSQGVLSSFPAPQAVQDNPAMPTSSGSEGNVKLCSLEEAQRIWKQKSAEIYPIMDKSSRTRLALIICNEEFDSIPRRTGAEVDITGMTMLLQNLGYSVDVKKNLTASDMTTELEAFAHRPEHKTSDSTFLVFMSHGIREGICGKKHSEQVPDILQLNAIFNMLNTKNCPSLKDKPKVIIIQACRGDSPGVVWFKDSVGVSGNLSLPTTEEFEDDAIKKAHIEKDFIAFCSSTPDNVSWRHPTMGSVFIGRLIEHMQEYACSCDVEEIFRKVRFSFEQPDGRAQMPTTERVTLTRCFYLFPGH
Nature of the assay: Inhibition of IL-1 beta converting enzyme (ICE) in human blood monocytes. In kind it is cell-based.

The record followed here is ChEMBL document CHEMBL1152032, “Inhibition of interleukin-1 converting enzyme by N-Acyl-aspartic acid ketones” (Bioorg Med Chem Lett, 1995).

As usually defined, the Ki is a dissociation constant, usually derived from enzyme kinetics or from competition with a known ligand. A lower Ki goes with higher affinity.

Compound `C=CCOC(=O)N[C@@H](CC(=O)O)C(=O)CN(CCc1ccccc1)Cc1ccccc1` came in with a Ki of 68 µM.

The compound `C=CCOC(=O)N[C@@H](CC(=O)O)C(=O)COC(=O)NCc1ccccc1` had a Ki of 74 µM.

As for `C=CCOC(=O)N[C@@H](CC(=O)O)C(=O)CNC(c1ccccc1)c1ccccc1`, the inhibitory constant (Ki) is more than 100 µM.

Compound `C=CCOC(=O)N[C@@H](CC(=O)O)C(=O)CNC(Cc1ccccc1)c1ccccc1` (stereo partly specified) gave a Ki of 70 µM.

`C=CCOC(=O)N[C@@H](CC(=O)O)C(=O)COC(=O)CCOc1ccccc1` came in with a Ki of 23 µM. `C=CCOC(=O)N[C@@H](CC(=O)O)C(=O)CSCCCc1ccccc1`: the affinity, expressed as Ki, was 27 µM.

For the compound `C=CCOC(=O)N[C@@H](CC(=O)O)C(=O)COC(=O)/C=C/c1ccccc1`, the Ki amounted to 90 µM.

With `C=CCOC(=O)N[C@@H](CC(=O)O)C(=O)COC(=O)CCC1CCCCC1`, the Ki turned out to be 3.5 µM. Next, `O=C(O)C[C@H](NC(=O)OCc1ccccc1)C(=O)COCCCc1ccccc1`: 24 µM; `C=CCOC(=O)N[C@@H](CC(=O)O)C(=O)CCCCc1ccccc1`: more than 100 µM. `C=CCOC(=O)N[C@@H](CC(=O)O)C(=O)CN(C)CCc1ccccc1` returned a Ki of more than 100 µM. The compound `C=CCOC(=O)N[C@@H](CC(=O)O)C(=O)COC(=O)CCc1ccccc1` returned a Ki of 20 µM. Compound `C=CCOC(=O)N[C@@H](CC(=O)O)C(=O)CNCCCc1ccccc1` gave a Ki of 67 µM. `C=CCOC(=O)N[C@@H](CC(=O)O)C(=O)CNCc1ccccc1` had a Ki of more than 100 µM. The figure for `C=CCOC(=O)N[C@@H](CC(=O)O)C(=O)CNCCc1ccccc1` is 4.4 µM; for `CC(=O)N[C@@H](Cc1ccc(O)cc1)C(=O)N[C@H](C(=O)N[C@@H](C)C(=O)N[C@@H](CC(=O)O)C(=O)CCCCc1ccccc1)C(C)C` it is 42 µM.
